# According to ChEMBL document CHEMBL5104207, “Synthesis, biological evaluation and computational studies of pyrazole derivatives as Mycobacterium tuberculosis CYP121A1 inhibitors” (RSC Med Chem, 2022):
# Active and inactive are the calls of the source. No cut-off for these calls is given here.
# System: Mycobacterium tuberculosis
# Assay: Binding affinity to BTFA labelled recombinant Mycobacterium tuberculosis CYP121A1 C171S mutant assessed as change in chemical shift perturbation incubated for 15 mins by 19F NMR spectroscopy
row,SMILES,Activity
1,COc1ccc(-c2nn(-c3ccc(Cl)cc3)cc2Cn2cncn2)cc1,Active
2,CCOc1ccc(-c2nn(-c3ccc(Cl)cc3)cc2Cn2cncn2)cc1,Active
3,COc1ccc(-c2nn(-c3ccc(F)cc3)cc2Cn2ccnc2)cc1,Active
4,CC(C)Oc1ccc(-c2nn(-c3ccc(F)cc3)cc2Cn2ccnc2)cc1,Active
